Laboratory results published in publication PMC4325551, “Inhibition of Rat 5α-Reductase Activity and Testosterone-Induced Sebum Synthesis in Hamster Sebocytes by an Extract of Quercus acutissima Cortex” (Evidence-based Complementary and Alternative Medicine : eCAM, 2015).

Experiments:
[1] = target: T1, rat liver microsomal 5α-reductase (Rattus norvegicus, UniProt P24008); test: 5α-reductase assay using rat liver microsomes (testosterone metabolism, HPLC and TLC); format: biochemical; settings: for effect on 5α-reductase activity: examined at 0.1, 1, 10, and 100 μmol/L; for inhibition of 5α-reductase activity: at 10 and 100 μmol/L; for Inhibitory activity on 5α-reductase (% of control) / IC50: testosterone 3.5 μmol/L, 30 min, rat liver microsomes 40 μg/mL, HPLC; for Inhibitory activity on 5α-reductase (% of control): mean ± SEM, N = 3
T1 construct: The reaction was started with the addition of liver microsomes (20 μg protein); from tissue; host or cells: liver microsomes of male Sprague–Dawley rats
T1 sequence (P24008 1-259): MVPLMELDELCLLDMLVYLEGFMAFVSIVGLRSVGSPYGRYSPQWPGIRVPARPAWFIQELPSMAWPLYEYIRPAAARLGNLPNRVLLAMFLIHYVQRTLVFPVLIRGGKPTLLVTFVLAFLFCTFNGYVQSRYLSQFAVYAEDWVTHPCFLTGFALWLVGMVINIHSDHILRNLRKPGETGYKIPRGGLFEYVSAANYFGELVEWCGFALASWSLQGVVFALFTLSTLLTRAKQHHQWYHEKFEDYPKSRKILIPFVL
Protocol: Rat liver microsomes were prepared by the method of Lee et al.. Male Sprague–Dawley rats (body weight, 300 to 320 g; Clea Japan, Tokyo, Japan) were fasted overnight to decrease the concentration of liver glycogen and then sacrificed. The liver was excised and washed in ice-cold homogenizing buffer containing 0.32 mol/L sucrose, 1 mmol/L dithiothreitol (Wako Pure Chemical Industries), and 20 mmol/L potassium phosphate, pH 6.5. The following procedures were all carried out at 4°C. The tissue was minced with a pair of scissors and then homogenized in homogenizing buffer using a Potter-Elvehjem grinder. The homogenate was then centrifuged at 10 000 g for 10 min. The resulting pellet was washed with two pellet volumes of homogenizing buffer and centrifuged again. The supernatants from the two centrifugations were combined and further centrifuged at 105 000 g for 1 h. The resulting pellet (microsomes) was suspended in homogenizing buffer and centrifuged again. The microsomes were resuspended in homogenizing buffer. The microsome suspension was divided into small aliquots and stored at −80°C. The microsomes were diluted with 40 mmol/L potassium phosphate, pH 6.5, immediately before use. Unlike human liver, rat liver microsomes have the 5α-R1 but not the 5α-R2 isoform.
Briefly, the reaction solution was preincubated with or without a test sample in 1 mmol/L dithiothreitol, 40 mmol/L potassium phosphate, pH 6.5, 100 μmol/L NADPH (Oriental Yeast, Tokyo, Japan), and 3.5 μmol/L testosterone (Wako Pure Chemical Industries) in a final volume of 0.5 mL for 20 min at room temperature. The reaction was started with the addition of liver microsomes (20 μg protein). After incubation at 37°C for 30 min, the reaction solution was extracted with 2 mL ethyl acetate. The ethyl acetate phase (upper phase) was transferred to a tube and evaporated using a centrifugal concentrator (Tomy Seiko, Tokyo, Japan). Testosterone and the metabolites were measured by two chromatography methods, HPLC (Shimadzu, Kyoto, Japan) and TLC.
The residue was dissolved in acetonitrile and analyzed using the HPLC system. The reverse-phase HPLC analysis was performed on a C18 column (3.0 × 150 mm, GL Science, Japan) at a column oven temperature of 50°C and UV detection of 240 nm. The isocratic mobile phase of acetonitrile/water (50 : 50, v/v) was flowed at 0.4 mL/min through the column.
To detect the steroids by TLC, the residue containing steroids was taken up in ethanol and chromatographed on a TLC plate (Silica gel 60 F254, Merck, Darmstadt, Germany), using ethyl acetate-hexane (1 : 1, v/v) as the developing solvent system at room temperature. Testosterone, (Tokyo Chemical Industry Co., Tokyo, Japan) and 5α-androstane-3α,17β-diol (Sigma-Aldrich) were applied to TLC as androgen standards. The plate was exposed to 10% sulfuric acid using an atomizer and then heated on a hot plate. The fluorescent signals were visualized by irradiation of UV light at 302 nm using a ChemiDoc XRS Plus (BIO-RAD, Hercules, CA).

[2] = system: primary hamster sebocytes (Ha-SE); test: cell cytotoxicity (XTT) in undifferentiated hamster sebocytes; settings: 0.2% triton X-100, 24 h in the presence of EGF
Protocol: Four Figures and Two Tables
Hamster-derived sebaceous gland cells (Ha-SE) were precultured until confluent in the presence of 10 ng/mL epidermal growth factor (EGF), and further cultured with 10, 30 […]
vehicle in the presence of EGF. Twenty four hours later, cell cytotoxicity was measured […]
Fig. S2. Bioconversion of exogenous dihydrotestosterone to 5α-androstane-3,17-diol by rat liver microsomal enzymes […]
min in the presence or absence of rat liver microsomes (40 μg/mL) and the co-factors.
The metabolites were extracted with ethyl acetate after incubation, and analyzed by TLC. All androgen standards were applied at 0.1 μg/μL/spot. T.: testosterone, DHT: dihydrotestosterone, A.diol: 5α-androstane-3α,17β-diol

## Oc1cc(O)c2c(c1)O[C@H](c1ccc(O)c(O)c1)[C@@H](O)C2 [(+)-catechin]
[1]
  effect on 5α-reductase activity: did not show any effect

## O=C(OC[C@H]1OC(O)[C@@](O)(COC(=O)c2cc(O)c(O)c(O)c2)[C@@H]1O)c1cc(O)c(O)c(O)c1 (stereo partly drawn) [Hamamelitannin, 2′,5-di-O-galloyl hamamelose]
[1]
  effect on 5α-reductase activity: did not show any effect

## O=C(OC[C@H]1OC(OC(=O)c2cc(O)c(O)c(O)c2)[C@H](OC(=O)c2cc(O)c(O)c(O)c2)[C@@H](OC(=O)c2cc(O)c(O)c(O)c2)[C@@H]1O)c1cc(O)c(O)c(O)c1 (stereo partly drawn) [Tetragalloyl glucose, 1,2,3,6-tetra-O-galloyl glucose]
[1]
  inhibition of 5α-reductase activity: more than 50%
  IC50: 8.1 µM
[1]; test sample 0.1 μmol/L
  Inhibitory activity on 5α-reductase (% of control): 3.3 ± 0.5 % of control
[1]; test sample 1 μmol/L
  Inhibitory activity on 5α-reductase (% of control): 18.7 ± 0.4 % of control
[1]; test sample 10 μmol/L
  Inhibitory activity on 5α-reductase (% of control): 63.2 ± 3.0 % of control
[1]; test sample 100 μmol/L
  Inhibitory activity on 5α-reductase (% of control): 102.8 ± 1.2 % of control

## O=C(O)c1cc(O)c(O)c(O)c1 [gallic acid, Gallic acid]
[1]
  effect on 5α-reductase activity: did not show any effect

## Oc1cc(O)c2c(c1)O[C@@H](c1cc(O)c(O)c(O)c1)[C@H](O)C2 [(−)-gallocatechin]
[1]
  effect on 5α-reductase activity: did not show any effect

## COC(=O)c1cc(O)c(O)c(O)c1 [methyl gallate]
[1]
  effect on 5α-reductase activity: did not show any effect

## Oc1cc(O)c2c(c1)O[C@H](c1cc(O)c(O)c(O)c1)[C@@H](O)C2 [(+)-gallocatechin, (+)-Gallocatechin]
[1]
  effect on 5α-reductase activity: did not show any effect

## O=C1OC[C@H]2OC(=O)c3cc(O)c(O)c(O)c3-c3c(O)c(O)c(O)c4c3C(=O)O[C@H]([C@H]3OC(=O)c5c-4c(O)c(O)c(O)c5[C@H]3O)[C@@H]2OC(=O)c2cc(O)c(O)c(O)c2-c2c1cc(O)c(O)c2O [Castalagin, castalagin]
[1]
  inhibition of 5α-reductase activity: more than 50%
  IC50: 8 µM
[1]; test sample 0.1 μmol/L
  Inhibitory activity on 5α-reductase (% of control): 4.9 ± 0.5 % of control
[1]; test sample 1 μmol/L
  Inhibitory activity on 5α-reductase (% of control): 6.3 ± 1.2 % of control
[1]; test sample 10 μmol/L
  Inhibitory activity on 5α-reductase (% of control): 70.7 ± 3.2 % of control
[1]; test sample 100 μmol/L
  Inhibitory activity on 5α-reductase (% of control): 113.3 ± 7.6 % of control

## COc1cc2ccc(=O)oc2c(O[C@@H]2O[C@H](CO)[C@@H](O)[C@H](O)[C@H]2O)c1O [fraxin]
[1]
  effect on 5α-reductase activity: did not show any effect

## O=C(O[C@@H]1O[C@@H]2COC(=O)c3cc(O)c(O)c(O)c3-c3c(cc(O)c(O)c3O)C(=O)O[C@H]2[C@H](OC(=O)c2cc(O)c(O)c(O)c2)[C@H]1OC(=O)c1cc(O)c(O)c(O)c1)c1cc(O)c(O)c(O)c1 [Eugeniin, eugeniin]
[1]
  inhibition of 5α-reductase activity: more than 50%
  IC50: 10.9 µM
[1]; test sample 0.1 μmol/L
  Inhibitory activity on 5α-reductase (% of control): 4.2 ± 1.0 % of control
[1]; test sample 1 μmol/L
  Inhibitory activity on 5α-reductase (% of control): 13.9 ± 0.5 % of control
[1]; test sample 10 μmol/L
  Inhibitory activity on 5α-reductase (% of control): 62.5 ± 0.6 % of control
[1]; test sample 100 μmol/L
  Inhibitory activity on 5α-reductase (% of control): 114.6 ± 0.6 % of control

## O=C(O[C@H]1[C@@H]2OC(=O)c3cc(O)c(O)c(O)c3-c3c(cc(O)c(O)c3O)C(=O)OC[C@H]2OC(O)[C@@H]1OC(=O)c1cc(O)c(O)c(O)c1)c1cc(O)c(O)c(O)c1 (stereo partly drawn) [1-Desgalloyl eugeniin, 1-desgalloyl eugeniin]
[1]
  inhibition of 5α-reductase activity: more than 50%
  IC50: 12.6 µM
[1]; test sample 0.1 μmol/L
  Inhibitory activity on 5α-reductase (% of control): 4.6 ± 0.2 % of control
[1]; test sample 1 μmol/L
  Inhibitory activity on 5α-reductase (% of control): 9.2 ± 1.6 % of control
[1]; test sample 10 μmol/L
  Inhibitory activity on 5α-reductase (% of control): 52.5 ± 2.4 % of control
[1]; test sample 100 μmol/L
  Inhibitory activity on 5α-reductase (% of control): 107.9 ± 0.9 % of control

## stenophyllanin C
[1]
  inhibition of 5α-reductase activity: more than 50%
  IC50: 7.2 µM
[1]; test sample 0.1 μmol/L
  Inhibitory activity on 5α-reductase (% of control): 5.6 ± 0.6 % of control
[1]; test sample 1 μmol/L
  Inhibitory activity on 5α-reductase (% of control): 4.6 ± 0.5 % of control
[1]; test sample 10 μmol/L
  Inhibitory activity on 5α-reductase (% of control): 63.1 ± 0.4 % of control
[1]; test sample 100 μmol/L
  Inhibitory activity on 5α-reductase (% of control): 102.3 ± 2.2 % of control

## triton X-100 [reference compound]
[2]
  cytotoxicity: significant cytotoxicity

## O=C(O[C@@H]1Cc2c(O)cc(O)cc2O[C@@H]1c1ccc(O)c(O)c1)c1cc(O)c(O)c(O)c1 [(−)-Epicatechin gallate, (−)-epicatechin gallate]
[1]
  inhibition of 5α-reductase activity: more than 50%
  IC50: 10 to 100 µM
[1]; test sample 0.1 μmol/L
  Inhibitory activity on 5α-reductase (% of control): 4.6 ± 0.2 % of control
[1]; test sample 1 μmol/L
  Inhibitory activity on 5α-reductase (% of control): 4.9 ± 0.2 % of control
[1]; test sample 10 μmol/L
  Inhibitory activity on 5α-reductase (% of control): 5.9 ± 0.3 % of control
[1]; test sample 100 μmol/L
  Inhibitory activity on 5α-reductase (% of control): 69.4 ± 1.2 % of control

## O=C(O[C@@H]1Cc2c(O)cc(O)cc2O[C@@H]1c1cc(O)c(O)c(O)c1)c1cc(O)c(O)c(O)c1 [(−)-Epigallocatechin gallate, (−)-epigallocatechin gallate]
[1]
  inhibition of 5α-reductase activity: more than 50%
  IC50: 10 to 100 µM
[1]; test sample 0.1 μmol/L
  Inhibitory activity on 5α-reductase (% of control): 3.7 ± 0.1 % of control
[1]; test sample 1 μmol/L
  Inhibitory activity on 5α-reductase (% of control): 4.4 ± 0.4 % of control
[1]; test sample 10 μmol/L
  Inhibitory activity on 5α-reductase (% of control): 5.3 ± 0.3 % of control
[1]; test sample 100 μmol/L
  Inhibitory activity on 5α-reductase (% of control): 58.6 ± 2.7 % of control

## O=C(O[C@@H]1COC(=O)c2cc(O)c(O)c(O)c2-c2c(cc(O)c(O)c2O)C(=O)O[C@H]1[C@@H]1OC(=O)c2cc(O)c(O)c(O)c2-c2c(O)c(O)c(O)c3c2C(=O)O[C@H]1[C@@H]3O)c1cc(O)c(O)c(O)c1 [Casuarinin, casuarinin]
[1]
  inhibition of 5α-reductase activity: more than 50%
  IC50: 10.5 µM
[1]; test sample 0.1 μmol/L
  Inhibitory activity on 5α-reductase (% of control): 6.4 ± 1.4 % of control
[1]; test sample 1 μmol/L
  Inhibitory activity on 5α-reductase (% of control): 10.8 ± 0.7 % of control
[1]; test sample 10 μmol/L
  Inhibitory activity on 5α-reductase (% of control): 59.0 ± 2.0 % of control
[1]; test sample 100 μmol/L
  Inhibitory activity on 5α-reductase (% of control): 110.1 ± 0.5 % of control

## O=C1c2c(O)cc(O)cc2O[C@H](c2ccc(O)c(O)c2)[C@H]1O [(+)-taxifolin]
[1]
  effect on 5α-reductase activity: did not show any effect
